From PubChem BioAssay AID330 (DTP/NCI, 2004) come the findings set out here.

In the assay the test system is P388 leukemia ip, CD2F1 mice, survival T/C. As to the kind of experiment: NCI In Vivo Anticancer Drug Screen. Data for tumor model P388 Leukemia (intraperitoneal) in CD2F1 (CDF1) mice. To be noted: endpoint: median survival time, higher = longer survival. The method in brief:
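Mice carrying the transplanted tumor received test compound or vehicle. Survival was recorded in each group, and the value is the treated-group measurement divided by that of the vehicle-treated control group.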

The mark [1] stands for this setting: dose: 100.0 mg/kg/injection, schedule: Q04DX003 (ip), vehicle: saline with Tween-80.
Setting [2] is: dose: 200.0 mg/kg/injection, schedule: Q04DX003 (ip), vehicle: saline with Tween-80.
Where [3] appears, read: dose: 400.0 mg/kg/injection, schedule: Q04DX003 (ip), vehicle: saline with Tween-80.
[4] abbreviates: dose: 100.0 mg/kg/injection, schedule: Q04DX002 (ip), vehicle: saline with Tween-80.
Setting [5] is: dose: 200.0 mg/kg/injection, schedule: Q04DX002 (ip), vehicle: saline with Tween-80.
Setting [6] is: dose: 50.0 mg/kg/injection, schedule: Q01DX009 (ip), vehicle: saline with Tween-80.
The mark [7] stands for this setting: dose: 100.0 mg/kg/injection, schedule: Q01DX009 (ip), vehicle: saline with Tween-80.
Setting [8] is: dose: 50.0 mg/kg/injection, schedule: Q01DX005 (ip), vehicle: Klucel (hydroxypropylcellulose) (HPC).
Where [9] appears, read: dose: 50.0 mg/kg/injection, schedule: Q01DX005 (ip), vehicle: saline with Tween-80.
The mark [10] stands for this setting: dose: 100.0 mg/kg/injection, schedule: Q01DX005 (ip), vehicle: saline with Tween-80.
Setting [11] is: dose: 50.0 mg/kg/injection, schedule: Q01DX005 (ip), vehicle: saline.
Setting [12] is: dose: 100.0 mg/kg/injection, schedule: Q01DX005 (ip), vehicle: saline.
The mark [13] stands for this setting: dose: 200.0 mg/kg/injection, schedule: Q01DX005 (ip), vehicle: saline.
Setting [14] is: dose: 60.0 mg/kg/injection, schedule: Q01DX005 (ip), vehicle: saline with Tween-80.
Setting [15] is: dose: 120.0 mg/kg/injection, schedule: Q01DX005 (ip), vehicle: saline with Tween-80.
[16] abbreviates: dose: 240.0 mg/kg/injection, schedule: Q01DX005 (ip), vehicle: saline with Tween-80.
Setting [17] is: dose: 100.0 mg/kg/injection, schedule: Q01DX005 (ip), vehicle: Klucel (hydroxypropylcellulose) (HPC).
Setting [18] is: dose: 200.0 mg/kg/injection, schedule: Q01DX005 (ip), vehicle: Klucel (hydroxypropylcellulose) (HPC).

Several values for one entry are separate records, joined by “and”; a condition that tells them apart may be missing. Equal values may be shown once. Toxic doses and inconclusive results are not listed.

As to `Fc1ccc(Oc2ccc(F)cc2)cc1`, the T/C runs as follows: (dose: 50.0 mg/kg/injection, schedule: Q04DX003 (ip), vehicle: saline with Tween-80) 106 % of control; under setting [1], 107 % of control; under setting [2], 111 % of control; under setting [3], 109 % of control.
With `CCCCCCCCCCCCCCCCOc1ccc2c(c1OCCCCCCCCCCCCCCCC)OC(C)(C)C=C2C`, the T/C under setting [4] is 88 % of control and the T/C under setting [5] was 86 % of control.
On to `Nc1c(OS(=O)(=O)c2ccccc2)cccc1OS(=O)(=O)c1ccccc1`, for which the T/C is 91 % of control under setting [6] and 90 % of control under setting [7].
As for `O=C(O)CSC(CC(=O)O)C(F)(F)C(F)(F)C(F)(F)F` (stereo not given), the T/C was 100 % of control (dose: 176.0 mg/kg/injection, schedule: Q04DX003 (ip), vehicle: saline) and 95 % of control (dose: 264.0 mg/kg/injection, schedule: Q04DX003 (ip), vehicle: saline).
Turning to `O=C(OC1(c2nccc3ccccc23)CCNCC1)c1ccccc1`, the T/C is, setting by setting: (dose: 12.5 mg/kg/injection, schedule: Q01DX005 (ip), vehicle: Klucel (hydroxypropylcellulose) (HPC)) 111 % of control; (dose: 25.0 mg/kg/injection, schedule: Q01DX005 (ip), vehicle: Klucel (hydroxypropylcellulose) (HPC)) 109 % of control; under setting [8], 103 % of control and 104 % of control.
Turning to `COC(=O)c1ccccc1N=C/C(Cl)=C(/Cl)C(=O)O`, the T/C (dose: 6.25 mg/kg/injection, schedule: Q01DX009 (ip), vehicle: Klucel (hydroxypropylcellulose) (HPC)) is 100 % of control and 110 % of control and 96 % of control; the T/C (dose: 12.5 mg/kg/injection, schedule: Q01DX009 (ip), vehicle: Klucel (hydroxypropylcellulose) (HPC)) was 100 % of control and 111 % of control and 117 % of control; the T/C (dose: 25.0 mg/kg/injection, schedule: Q01DX009 (ip), vehicle: Klucel (hydroxypropylcellulose) (HPC)) was 113 % of control and 118 % of control and 121 % of control; the T/C (dose: 50.0 mg/kg/injection, schedule: Q01DX009 (ip), vehicle: Klucel (hydroxypropylcellulose) (HPC)) is 113 % of control and 116 % of control and 119 % of control.
With `CC(C)NCC(O)c1ccc(O)c(NC=O)c1` (stereo not given), the T/C under setting [6] is 102 % of control; the T/C under setting [7] is 104 % of control; the T/C (dose: 200.0 mg/kg/injection, schedule: Q01DX009 (ip), vehicle: saline with Tween-80) is 100 % of control.
`Cc1ccc(NC(=O)N(CCCl)N=O)c(C)c1`: the T/C is 190 % of control (dose: 16.5 mg/kg/injection, schedule: Q04DX003 (ip), vehicle: saline with Tween-80); 250 % of control (dose: 25.0 mg/kg/injection, schedule: Q04DX003 (ip), vehicle: saline with Tween-80); 90 % of control (dose: 37.5 mg/kg/injection, schedule: Q04DX003 (ip), vehicle: saline with Tween-80).
For `O=C(O)C(=O)c1ccccc1`, the T/C (dose: 50.0 mg/kg/injection, schedule: Q04DX003 (ip), vehicle: saline) was 100 % of control; the T/C (dose: 100.0 mg/kg/injection, schedule: Q04DX003 (ip), vehicle: saline) is 105 % of control; the T/C (dose: 200.0 mg/kg/injection, schedule: Q04DX003 (ip), vehicle: saline) is 100 % of control.
On to `CCC(=C(c1ccc(OCCN(C)C)cc1)c1cccc(O)c1)c1ccccc1` (mixture of isomers), for which the T/C is, setting by setting: (dose: 60.0 mg/kg/injection, schedule: Q01DX005 (ip), vehicle: Klucel (hydroxypropylcellulose) (HPC)) 104 % of control; (dose: 120.0 mg/kg/injection, schedule: Q01DX005 (ip), vehicle: Klucel (hydroxypropylcellulose) (HPC)) 107 % of control.
Consider `CCN(CC)CCN1CC(=O)N2Cc3ccccc3CN2C(=O)C1`, for which the T/C was 101 % of control under setting [9] and 104 % of control under setting [10].
On to `Cc1c(C)[n+](=O)c2ccccc2n1[O-]`, for which the T/C was 103 % of control under setting [11], 108 % of control under setting [12] and 100 % of control under setting [13].
In the case of `Cc1[nH]c(N)nc(=S)c1CCCOc1ccc([N+](=O)[O-])cc1`, the T/C is, setting by setting: under setting [14], 99 % of control; under setting [15], 93 % of control; under setting [16], 97 % of control.
With `OCCN1CCC(C2CCN(CCO)CC2)CC1`, the T/C under setting [11] is 96 % of control, the T/C under setting [12] was 97 % of control and the T/C under setting [13] is 98 % of control.
On to `CC12C(=O)NC(c3ccccc3)(c3ccccc31)C1C(=O)N(C(N)=O)C(=O)C12` (stereo not given), for which the T/C runs as follows: under setting [14], 94 % of control; under setting [15], 89 % of control; under setting [16], 93 % of control.
On to `CC1(C)N(O)C(c2cccnc2)=[N+]([O-])C1(C)C`, for which the T/C is 104 % of control under setting [8]; 97 % of control (dose: 50.0 mg/kg/injection, schedule: Q01DX009 (ip), vehicle: saline); 101 % of control under setting [17]; 94 % of control (dose: 100.0 mg/kg/injection, schedule: Q01DX009 (ip), vehicle: saline); 103 % of control under setting [18]; 102 % of control (dose: 200.0 mg/kg/injection, schedule: Q01DX009 (ip), vehicle: saline).
For `COc1ccc(SS(=O)c2ccc(OC)cc2)cc1` (stereo not given), the T/C is, setting by setting: under setting [4], 100 % of control; under setting [5], 102 % of control; (dose: 400.0 mg/kg/injection, schedule: Q04DX002 (ip), vehicle: saline with Tween-80) 102 % of control.
Regarding `NNC(=O)C(=O)NCc1ccco1`, the T/C was 88 % of control (dose: 12.5 mg/kg/injection, schedule: Q01DX009 (ip), vehicle: saline with Tween-80); 98 % of control (dose: 25.0 mg/kg/injection, schedule: Q01DX009 (ip), vehicle: saline with Tween-80); 95 % of control under setting [6].
Regarding `[N-]=[N+]=Nc1ccc(NCCN2C(=O)C=CC2=O)c([N+](=O)[O-])c1`, the T/C was 103 % of control under setting [9]; 101 % of control under setting [10]; 101 % of control (dose: 200.0 mg/kg/injection, schedule: Q01DX005 (ip), vehicle: saline with Tween-80).
For `COc1ccc2nc(N/N=C/c3ccccn3)cc(C)c2c1`, the T/C (dose: 25.0 mg/kg/injection, schedule: Q01DX005 (ip), vehicle: saline with Tween-80) was 103 % of control; the T/C under setting [9] was 110 % of control and 112 % of control; the T/C under setting [10] is 103 % of control.
On to `CC(C)(C)SC(=S)SCC(=O)c1ccc(F)cc1`, for which the T/C by setting is: under setting [14], 102 % of control; under setting [15], 103 % of control; under setting [16], 102 % of control.
As for `C=C1CC2(CCC3C4CC=C5CC(O)CCC5(C)C4CCC32C)OC1=O` (stereo not given), the T/C is, setting by setting: (dose: 100.0 mg/kg/injection, schedule: Q04DX003 (ip), vehicle: Klucel (hydroxypropylcellulose) (HPC)) 104 % of control; (dose: 200.0 mg/kg/injection, schedule: Q04DX003 (ip), vehicle: Klucel (hydroxypropylcellulose) (HPC)) 105 % of control; (dose: 400.0 mg/kg/injection, schedule: Q04DX003 (ip), vehicle: Klucel (hydroxypropylcellulose) (HPC)) 97 % of control.
On to `O=S(=O)(Nc1ccc(O)c(Cl)c1)c1ccccc1`, for which the T/C by setting is: under setting [1], 100 % of control; under setting [2], 100 % of control; under setting [3], 100 % of control.
Consider `CCOC(=O)C(/C=N/NS(=O)(=O)c1ccc(C)cc1)c1ccccc1` (stereo not given), for which the T/C is, setting by setting: (dose: 100.0 mg/kg/injection, schedule: Q04DX002 (ip), vehicle: saline) 96 % of control; (dose: 200.0 mg/kg/injection, schedule: Q04DX002 (ip), vehicle: saline) 94 % of control; (dose: 400.0 mg/kg/injection, schedule: Q04DX002 (ip), vehicle: saline) 97 % of control.
For the compound `NCCCCC(NC(=O)OCC1c2ccccc2-c2ccccc21)C(=O)O` (stereo not given), the T/C under setting [8] was 99 % of control, the T/C under setting [17] is 99 % of control and the T/C under setting [18] was 109 % of control.
